Here are results for 34 compounds from US20160083391A1, “TRICYCLIC PIPERAZINE DERIVATIVE” (Sunovion Pharmaceuticals Inc., priority 2014, published 2016).

The test relates to PDE1. Put plainly: In vitro HTRF PDE1 inhibition assay. Conditions: HTRF cGMP assay, 100 nM cyclic GMP, PDE (1A3, 1B or 1C) with calmodulin, 45 minutes at 37° C.; isoform of the tabulated values not stated. Type of test: biochemical. The method in brief: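 HTRF cGMP competition assay: PDE1A3, 1B or 1C with calmodulin acting on 100 nM cGMP in 1% DMSO, pH 7.4 buffer with Ca2+ and Mg2+, 45 min at 37 °C. Remaining cGMP detected with d2-cGMP and anti-cGMP cryptate (665/615 nm); IC50 reported as banded categories.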
For orientation: Time-resolved FRET reads energy transfer from a long-lived donor to a nearby acceptor.

The IC50 is the concentration that gives 50% inhibition.

In the case of `O=c1c2cnn(C3CCOCC3)c2nc2n1CCN(Cc1ccc(Cl)cc1)C2` [Compound I-211, 8-(4-Chlorobenzyl)-1-(tetrahydro-2H-pyran-4-yl)-6,7,8,9-tetrahydropyrazino[1,2-a]pyrazolo[3,4-d]pyrimidin-4(1H)-one], the IC50 was under 1000 nM.
For `O=c1c2cnn(C3CCOCC3)c2nc2n1CCN(c1ccc(Cl)cc1)C2` [Compound I-212, 8-(4-Chlorophenyl)-1-(tetrahydro-2H-pyran-4-yl)-6,7,8,9-tetrahydropyrazino[1,2-a]pyrazolo[3,4-d]pyrimidin-4(1H)-one] the value was under 1000 nM.
In turn, `COc1ccc(CN2CCn3c(nn4c(CC(C)C)nnc4c3=O)C2)cc1` [Compound I-213, 3-Isobutyl-7-(4-methoxybenzyl)-8,9-dihydro-6H-pyrazino[2,1-c][1,2,4]triazolo[3,4-f][1,2,4]triazin-11(7H)-one] returned an IC50 of under 1000 nM.
Take `CC(C)Cc1nnc2c(=O)n3c(nn12)CN(Cc1ccccc1)CC3` [Compound I-214, 7-Benzyl-3-isobutyl-8,9-dihydro-6H-pyrazino[2,1-c][1,2,4]triazolo[3,4-f][1,2,4]triazin-11(7H)-one]: the concentration for half-maximal inhibition (IC50) was 1000 to 10000 nM.
For `CC(C)Cc1nnc2c(=O)n3c(nn12)CN(Cc1ccc(Cl)cc1)CC3` [Compound I-215, 7-(4-Chlorobenzyl)-3-isobutyl-8,9-dihydro-6H-pyrazino[2,1-c][1,2,4]triazolo[3,4-f][1,2,4]triazin-11(7H)-one] the value was under 1000 nM; for `CC(C)c1nnc2c(=O)n3c(nn12)CN(Cc1ccc(Cl)cc1)CC3` [Compound I-221, 7-(4-Chlorobenzyl)-3-isopropyl-8,9-dihydro-6H-pyrazino[2,1-c][1,2,4]triazolo[3,4-f][1,2,4]triazin-11(7H)-one], 1000 to 10000 nM; for `COc1ccc(CN2CCn3c(nn4c(C(C)C)nnc4c3=O)C2)cc1` [Compound I-222, 3-Isopropyl-7-(4-methoxybenzyl)-8,9-dihydro-6H-pyrazino[2,1-c][1,2,4]triazolo[3,4-f][1,2,4]triazin-11(7H)-one], 1000 to 10000 nM.
Compound `CC(C)c1nnc2c(=O)n3c(nn12)CN(Cc1ccccc1)CC3` [Compound I-223, 7-Benzyl-3-isopropyl-8,9-dihydro-6H-pyrazino[2,1-c][1,2,4]triazolo[3,4-f][1,2,4]triazin-11(7H)-one] came in with an IC50 of 1000 to 10000 nM.
Regarding `CC(C)Cc1nnc2c(=O)n3c(nn12)CN(Cc1ccccn1)CC3` [Compound I-224, 3-Isobutyl-7-(pyridin-2-ylmethyl)-8,9-dihydro-6H-pyrazino[2,1-c][1,2,4]triazolo[3,4-f][1,2,4]triazin-11(7H)-one], the IC50 is 1000 to 10000 nM.
For `CC(C)c1nnc2c(=O)n3c(nn12)CN(CCc1ccccc1)CC3` [Compound I-225, 3-Isopropyl-7-phenethyl-8,9-dihydro-6H-pyrazino[2,1-c][1,2,4]triazolo[3,4-f][1,2,4]triazin-11(7H)-one] the value was 1000 to 10000 nM; for `CC(C)c1nnc2c(=O)n3c(nn12)CN(Cc1ccccn1)CC3` [Compound I-226, 3-Isopropyl-7-(pyridin-2-ylmethyl)-8,9-dihydro-6H-pyrazino[2,1-c][1,2,4]triazolo[3,4-f][1,2,4]triazin-11(7H)-one], over 10000 nM.
The same measure for `CC(C)Cc1nnc2c(=O)n3c(nn12)CN(CCc1ccccc1)CC3` [Compound I-227, 3-Isobutyl-7-phenethyl-8,9-dihydro-6H-pyrazino[2,1-c][1,2,4]triazolo[3,4-f][1,2,4]triazin-11(7H)-one]: 1000 to 10000 nM; for `CC(C)Cc1nnc2c(=O)n3c(nn12)CN(Cc1ccncc1)CC3` [Compound I-228, 3-Isobutyl-7-(pyridin-4-ylmethyl)-8,9-dihydro-6H-pyrazino[2,1-c][1,2,4]triazolo[3,4-f][1,2,4]triazin-11(7H)-one]: 1000 to 10000 nM; for `COc1ccc(CN2CCn3c(nn4c(C5CCOCC5)ncc4c3=O)C2)cc1` [Compound I-234, 7-(4-Methoxybenzyl)-3-(tetrahydro-2H-pyran-4-yl)-8,9-dihydro-6H-imidazo[5,1-f]pyrazino[2,1-c][1,2,4]triazin-11(7H)-one]: under 1000 nM.
For `O=c1c2cnc(C3CCOCC3)n2nc2n1CCN(Cc1ccc(Cl)cc1)C2` [Compound I-235, 7-(4-Chlorobenzyl)-3-(tetrahydro-2H-pyran-4-yl)-8,9-dihydro-6H-imidazo[5,1-f]pyrazino[2,1-c][1,2,4]triazin-11(7H)-one] the value was under 1000 nM; for `O=c1c2cnc(C3CCOCC3)n2nc2n1CCN(c1ccc(Cl)cc1)C2` [Compound I-236, 7-(4-Chlorophenyl)-3-(tetrahydro-2H-pyran-4-yl)-8,9-dihydro-6H-imidazo[5,1-f]pyrazino[2,1-c][1,2,4]triazin-11(7H)-one], under 1000 nM.
For the compound `CC(C)n1ncc2c(=O)n3c(nc21)CN(c1ccc(C#N)cc1)CC3` [Compound I-237, 4-(1-Isopropyl-4-oxo-6,7-dihydropyrazino[1,2-a]pyrazolo[3,4-d]pyrimidin-8(1H,4H,9H)-yl)benzonitrile], the IC50 was under 1000 nM.
For `CC(C)c1ncc2c(=O)n3c(nn12)CN(c1ccc(C#N)cc1)CC3` [Compound I-238, 4-(3-Isopropyl-11-oxo-8,9-dihydro-6H-imidazo[5,1-f]pyrazino[2,1-c][1,2,4]triazin-7(11H)-yl)benzonitrile] the value was under 1000 nM.
As for `CC(C)n1ncc2c(=O)n3c(nc21)CN(c1ccc(C(F)(F)F)cc1)CC3` [Compound I-239, 1-Isopropyl-8-(4-(trifluoromethyl)phenyl)-6,7,8,9-tetrahydropyrazino[1,2-a]pyrazolo[3,4-d]pyrimidin-4(1H)-one], the IC50 is under 1000 nM.
For `CC(C)c1ncc2c(=O)n3c(nn12)CN(c1ccc(C(F)(F)F)cc1)CC3` [Compound I-240] the value was under 1000 nM; for `CC(C)n1ncc2c(=O)n3c(nc21)CN(c1ccc(Cl)cn1)CC3` [Compound I-241, 8-(5-Chloropyridin-2-yl)-1-isopropyl-6,7,8,9-tetrahydropyrazino[1,2-a]pyrazolo[3,4-d]pyrimidin-4(1H)-one], under 1000 nM.
The same measure for `CC(C)c1ncc2c(=O)n3c(nn12)CN(c1ccc(Cl)cn1)CC3` [Compound I-242, 7-(5-Chloropyridin-2-yl)-3-isopropyl-8,9-dihydro-6H-imidazo[5,1-f]pyrazino[2,1-c][1,2,4]triazin-11(7H)-one]: under 1000 nM; for `O=c1c2cnn(C3CCCC3)c2nc2n1CCN(CCc1ccc(Cl)cc1)C2` [Compound I-243, 8-(4-Chlorophenethyl)-1-cyclopentyl-6,7,8,9-tetrahydropyrazino[1,2-a]pyrazolo[3,4-d]pyrimidin-4(1H)-one]: 1000 to 10000 nM.
The same measure for `COc1ccc(CCN2CCn3c(nn4c(C5CCCC5)ncc4c3=O)C2)cc1` [Compound I-244, 3-Cyclopentyl-7-(4-methoxyphenethyl)-8,9-dihydro-6H-imidazo[5,1-f]pyrazino[2,1-c][1,2,4]triazin-11(7H)-one]: 1000 to 10000 nM; for `CC(C)c1nnc2c(=O)n3c(nn12)CN(Cc1ccncc1)CC3` [Compound I-245, 3-Isopropyl-7-(pyridin-4-ylmethyl)-8,9-dihydro-6H-pyrazino[2,1-c][1,2,4]triazolo[3,4-f][1,2,4]triazin-11(7H)-one]: over 10000 nM.
Regarding `O=c1c2cnn(C3CCC3)c2nc2n1CCN(c1ccc(Cl)cc1)C2` [Compound I-246, 8-(4-Chlorophenyl)-1-cyclobutyl-6,7,8,9-tetrahydropyrazino[1,2-a]pyrazolo[3,4-d]pyrimidin-4(1H)-one], the IC50 was 1000 to 10000 nM.
In turn, `CC(C)(C)n1ncc2c(=O)n3c(nc21)CN(c1ccc(Cl)cc1)CC3` [Compound I-247, 1-(tert-Butyl)-8-(4-chlorophenyl)-6,7,8,9-tetrahydropyrazino[1,2-a]pyrazolo[3,4-d]pyrimidin-4(1H)-one] displayed an IC50 of 1000 to 10000 nM.
For `O=c1c2cnn(C3CC3)c2nc2n1CCN(c1ccc(Cl)cc1)C2` [Compound I-248, 8-(4-Chlorophenyl)-1-cyclopropyl-6,7,8,9-tetrahydropyrazino[1,2-a]pyrazolo[3,4-d]pyrimidin-4(1H)-one], the IC50 was under 1000 nM.
For `O=c1c2cnc(C3CCC3)n2nc2n1CCN(c1ccc(Cl)cc1)C2` [Compound I-249, 7-(4-Chlorophenyl)-3-cyclobutyl-8,9-dihydro-6H-imidazo[5,1-f]pyrazino[2,1-c][1,2,4]triazin-11(7H)-one] the value was under 1000 nM; for `CC(C)(C)c1ncc2c(=O)n3c(nn12)CN(c1ccc(Cl)cc1)CC3` [Compound I-250, 3-(tert-Butyl)-7-(4-chlorophenyl)-8,9-dihydro-6H-imidazo[5,1-f]pyrazino[2,1-c][1,2,4]triazin-11(7H)-one], 1000 to 10000 nM; for `O=c1c2cnc(C3CC3)n2nc2n1CCN(c1ccc(Cl)cc1)C2` [Compound I-251, 7-(4-Chlorophenyl)-3-cyclopropyl-8,9-dihydro-6H-imidazo[5,1-f]pyrazino[2,1-c][1,2,4]triazin-11(7H)-one], under 1000 nM.
For `O=c1c2cnc(C3CCNCC3)n2nc2n1CCN(c1ccc(Cl)cc1)C2` [Compound I-252, 7-(4-Chlorophenyl)-3-(piperidin-4-yl)-8,9-dihydro-6H-imidazo[5,1-f]pyrazino[2,1-c][1,2,4]triazin-11(7H)-one] the value was 1000 to 10000 nM.
The same measure for `CCCn1ncc2c(=O)n3c(nc21)CN(Cc1ccc(Cl)cc1)CC3` [Compound I-253, 8-(4-Chlorobenzyl)-1-propyl-6,7,8,9-tetrahydropyrazino[1,2-a]pyrazolo[3,4-d]pyrimidin-4(1H)-one]: 1000 to 10000 nM; for `CCCn1ncc2c(=O)n3c(nc21)CN(Cc1cccc(OC)c1)CC3` [Compound I-254, 8-(3-Methoxybenzyl)-1-propyl-6,7,8,9-tetrahydropyrazino[1,2-a]pyrazolo[3,4-d]pyrimidin-4(1H)-one]: 1000 to 10000 nM.
